Experimental data as given in US20210205292A1, “INHIBITORS OF CREB-CBP INTERACTION FOR TREATMENT OF LEUKEMIA” (The Board of Trustees of the Leland Stanford Junior …, priority 2016, published 2021).
Entries after “also recorded” stand apart in the source; their conditions may differ.

How the values were obtained:
[1] = Plasma pharmacokinetics in NSG mice, quantitative mass spectrometry; format: in vivo; details: mouse, ip, 20 mg/kg/day, 20 mg/kg/day IP
Protocol: FIG. 10, panels A-D, illustrates the non-toxicity and pharmacodynamics of compound Compound A. Panel A) Human AML patient sample cells (#186) were injected (2×10^6 cells) into 8 NSG mice, and mice were then treated with intravenous 0.1% DMSO or 2.3 mg/kg Compound A IV once daily. […] Compound A plasma concentration was measured by quantitative mass spectrometry. […] Panel C). […] Numbers shown are averages of values from 3 mice SE.
(§1) To assess the potential in vivo toxicities of Compound A, four groups of five mice not injected with AML cells were treated with 2.3 mg/kg Compound A intravenously daily, or 20, 40 or 60 mg/kg intraperitoneally (IP) daily for 28 days.

[2] = system: primary AML patient bone marrow samples; experiment: Single cell mass cytometry (CyTOF) of primary AML patient samples; format: cell-based, human
Protocol: These were stained for viability using cisplatin. Cells were fixed with 1.6% PFA (Electron Microscopy Sciences) for 10 min and washed with cell staining media (CSM). Fc receptor block was performed using Human TruStain FcX (Biolegend) following manufacturer's instructions. Cells were stained for surface proteins at room temperature for 30 min. Following staining, cells were washed twice with CSM and permeabilized with methanol pre-cooled to 4° C. for 10 min. Cells were then washed twice and stained for intracellular proteins for 30 min at room temperature. Surface and intracellular staining cocktails are listed in supplementary methods. Cells were washed and stained with 1 mL of 2000× iridium DNA intercalator (diluted 1:5000 in PBS with 1.6% PFA; DVS Sciences) overnight at 4° C. Data were acquired using internal metal isotope bead standards as previously described (Finck et al., “Normalization of mass cytometry data with bead standards.” Cytometry A. 2013; 83(5):483-94). Cell events were acquired at approximately 500 events per second on a CyTOF I (DVS Sciences/Fluidigm). All antibodies were also purchased from DVS Sciences/Fluidigm. Each patient sample was individually normalized to the internal bead standards prior to analysis. […]

[3] = In vivo toxicity in NSG mice not injected with AML cells; set-up: species or system mouse
Protocol: as §1

[4] = system: Bcl-2, Mcl-1 expression in KG-1 cells; experiment: Western blot of anti-apoptotic proteins in KG-1 cells; format: cell-based
Protocol: Cells were lysed in RIPA buffer (Sigma), and the protein concentrations were determined by BCA assay (Thermo Scientific Pierce). Lysates were solubilized in 6×SDS PAGE buffer and […] of protein was loaded into 6-15% SDS PAGE gels, pheresed, and then transferred onto […] PVDF membrane (Millipore). Primary antibodies were applied at a dilution of 1:1000. Anti-Bcl-2, -Bax, -Mcl-1, -Bcl-XL, -Cyclin A and -Cyclin D1 antibodies were purchased from Cell Signaling Technologies. Anti-total acetylated histone and -ac-H3K27 were purchased from Santa Cruz Biotechnologies. Anti-actin and -CREB antibodies were purchased from upstate. Secondary antibodies were used at a 1:2500 dilution and purchased from Thermo Scientific/Pierce. WesternBright ECL was used for image acquisition on Image Lab software (Bio-Rad).
The balance between pro- and anti-apoptotic protein expression contributes to cell fate decisions. CREB regulates the expression of several anti-apoptotic proteins, including Bcl-2, Bcl-XL and Mcl-1. Bcl-2 expression in particular is known to mediate resistance to chemotherapy and influence clinical outcome in a number of cancer types, including AML. The ability of Compound A to cause apoptosis by disrupting the CREB-driven expression of these anti-apoptotic proteins was examined. In HL-60 cells treated with Compound A, apoptosis is induced in a dose- and time-dependent manner. […]

HL-60 cells = experiment: HL-60 viability, combination of Compound A with kinase inhibitors; format: cell-based, human; details: 48 hours
[5] = 2.3 mg/kg IV or 20, 40 or 60 mg/kg IP daily, 28 days

N#Cc1ccc(NC(=O)c2cc3ccccc3cc2O)cc1 [Compound A, N-(4-cyanophenyl)-3-hydroxy-2-naphthamide]
half-life [1]: 4.3 h
cells in S-phase (CyTOF) ([2]; patient sample 97, CD34+CD38− subpopulation): < 0.1 % of total
Bcl-2 expression (CyTOF) ([2]; patient samples 96 and 186, all cell subpopulations, 2 µM, 48 hours): reduced Bcl-2 expression
complete blood counts, liver function tests and kidney function tests [3, 5]: no difference; also recorded: normal complete blood counts, liver function tests and kidney function tests
tissue histology [3, 5]: no evidence of fibrosis or damage; also recorded: no microscopic evidence of vital organ damage
animal body weight ([3]; over 28 days): no decrease in animal body weight
Bcl-2 expression [4]: decreased Bcl-2 expression
Mcl-1 expression [4]: pronounced decrease in Mcl-1
viability (HL-60 cells; Compound A alone): 87.4±7.3%
viability (HL-60 cells; Compound A combined with ERK inhibitor): 55.3±3.4%
viability (HL-60 cells; Compound A combined with RSK inhibitor): 49.5±2.3%
